Where “and” joins values, the source holds several entries; their conditions need not be identical. Equal values may be shown once.

Usually IC50 stands for the concentration needed to halve the response being measured. High values mean a need for much substance, low ones inhibition by little substance. The GI50 is the concentration giving 50% growth inhibition.

Experiment [1] concerns the target T1, ULK3 (Homo sapiens, UniProt Q6PHR2).
T1 sequence (Q6PHR2 1-472): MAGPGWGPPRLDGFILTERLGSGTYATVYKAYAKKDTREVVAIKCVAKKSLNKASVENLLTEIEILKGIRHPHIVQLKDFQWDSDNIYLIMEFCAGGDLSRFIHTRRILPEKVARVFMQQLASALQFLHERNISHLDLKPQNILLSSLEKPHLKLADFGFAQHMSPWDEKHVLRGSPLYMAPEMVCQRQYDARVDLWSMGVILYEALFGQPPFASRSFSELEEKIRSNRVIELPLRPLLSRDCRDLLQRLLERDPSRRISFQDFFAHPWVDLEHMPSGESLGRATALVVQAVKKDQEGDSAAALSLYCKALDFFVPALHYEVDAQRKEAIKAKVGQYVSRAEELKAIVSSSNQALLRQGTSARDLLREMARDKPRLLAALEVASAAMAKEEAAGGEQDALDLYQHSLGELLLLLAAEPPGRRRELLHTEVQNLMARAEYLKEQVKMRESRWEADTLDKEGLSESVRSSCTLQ
Kind of experiment: IC50 for ULK3, Reaction Biology kinase assay (32P Hotspot assay). The format is biochemical.

For experiment [2], the target named is T2, JAK2 (Homo sapiens, UniProt O60674). The experiment in a line: IC50 for JAK2, Reaction Biology kinase assay (32P Hotspot assay). The format is biochemical.
Experiment [3] addresses T1, ULK3. Kind of experiment: DSF (ULK3) thermal shift. The class given is binding.
The next experiment concerns U266. Kind of experiment: GI50 (MM cell) U266. The note with it: Homo sapiens, U-266. The format is cell-based.
A further experiment deals with 8226. The experiment in a line: GI50 (MM cell) 8226. The format is cell-based.
A further experiment deals with OPM2. The experiment in a line: GI50 (MM cell) OPM2. Particulars: Homo sapiens, OPM-2. The class given is cell-based.
A further experiment concerns U266 PSR. The experiment in a line: GI50 (MM cell) U266 PSR. The format is cell-based. Particulars: Homo sapiens, U-266.
Another experiment has as its system 8226 B25. Kind of experiment: GI50 (MM cell) 8226 B25. The class given is cell-based.
In experiment [4] the target is T2, JAK2. Kind of experiment: DSF (JAK2) thermal shift. The class given is binding.

T2 sequence (O60674 whole entry): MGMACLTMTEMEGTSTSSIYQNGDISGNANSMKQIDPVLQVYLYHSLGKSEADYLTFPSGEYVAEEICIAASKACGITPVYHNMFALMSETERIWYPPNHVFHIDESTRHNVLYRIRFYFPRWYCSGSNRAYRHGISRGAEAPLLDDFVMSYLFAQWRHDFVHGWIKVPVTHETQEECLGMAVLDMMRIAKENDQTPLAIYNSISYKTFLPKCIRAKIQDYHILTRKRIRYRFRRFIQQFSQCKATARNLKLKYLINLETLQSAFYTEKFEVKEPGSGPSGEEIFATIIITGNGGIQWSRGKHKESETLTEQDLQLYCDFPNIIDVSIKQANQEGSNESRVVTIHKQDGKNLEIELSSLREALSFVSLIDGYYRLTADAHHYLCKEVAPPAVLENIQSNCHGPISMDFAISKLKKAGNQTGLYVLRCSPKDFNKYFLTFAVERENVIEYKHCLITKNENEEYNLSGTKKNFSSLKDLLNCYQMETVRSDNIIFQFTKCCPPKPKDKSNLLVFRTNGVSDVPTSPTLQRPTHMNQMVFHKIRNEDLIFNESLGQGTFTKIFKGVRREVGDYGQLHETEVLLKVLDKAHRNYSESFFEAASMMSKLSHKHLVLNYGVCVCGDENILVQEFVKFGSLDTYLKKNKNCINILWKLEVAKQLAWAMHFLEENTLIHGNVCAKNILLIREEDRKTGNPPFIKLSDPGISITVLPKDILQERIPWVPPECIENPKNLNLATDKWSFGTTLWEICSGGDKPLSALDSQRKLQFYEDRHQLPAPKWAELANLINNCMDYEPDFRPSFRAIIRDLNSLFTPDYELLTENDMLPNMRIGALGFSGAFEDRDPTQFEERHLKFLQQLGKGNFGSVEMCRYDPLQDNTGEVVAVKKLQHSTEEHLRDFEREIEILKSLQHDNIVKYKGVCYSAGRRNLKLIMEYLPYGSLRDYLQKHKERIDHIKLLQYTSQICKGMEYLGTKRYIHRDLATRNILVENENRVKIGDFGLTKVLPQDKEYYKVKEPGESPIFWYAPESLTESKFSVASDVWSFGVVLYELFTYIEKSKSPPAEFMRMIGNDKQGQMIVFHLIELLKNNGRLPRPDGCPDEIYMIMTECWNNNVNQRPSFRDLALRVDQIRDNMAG

Regarding `CC(NC(=O)c1ccc(-c2ccnc(Nc3ccc(N4CCOCC4)cc3)n2)cc1)C(F)(F)F` (racemic) [SR8-170, (RS)-4-(2-((4-Morpholinophenyl)amino)pyrimidin-4-yl)-N-(1,1,1-trifluoropropan-2-yl)benzamide], the values for the IC50 at ULK3 [1] and against JAK2 [2] were 8.71 nM and 1.31 nM, respectively. Also, the “DSF (ULK3) ΔTm (° C.)” value on ULK3 [3] is 14.3 °C and 14.4 °C. The GI50 in the experiment on U266 came to 210 nM; with 8226 it was 290 nM; in the experiment on OPM2, 6700 nM; in the experiment on U266 PSR, 1580 nM; with 8226 B25 it was 404 nM.
`CC(C)(C)[C@@H](CO)NC(=O)c1ccc(-c2ccnc(Nc3ccc(N4CCOCC4)cc3)n2)cc1` [BH1-062, (S)—N-(1-Hydroxy-3,3-dimethylbutan-2-yl)-4-(2-((4-morpholinophenyl)amino)pyrimidin-4-yl)benzamide]: the IC50 at JAK2 [2] was determined as 12.9 nM. The “DSF (JAK2) ΔTm (° C.)” value on JAK2 [4] came out at 1.0 °C.
Regarding `Cc1cnc(Nc2ccc(N3CCOCC3)cc2)nc1Nc1ccc(Cl)c(NS(=O)(=O)C(C)(C)C)c1` [BH1-150], the half-inhibitory concentration (IC50) on JAK2 [2] is 1.25 nM. For the same compound, on ULK3 [3], the “DSF (ULK3) ΔTm (° C.)” value is 15.0 °C. Moreover, the “DSF (JAK2) ΔTm (° C.)” value at JAK2 [4] came to 2.1 °C.
As for `C[C@@H](NC(=O)c1ccc(-c2ccnc(Nc3ccc(N4CCOCC4)cc3)n2)cc1)C(F)(F)F` [BH1-151, (R)-4-(2-((4-Morpholinophenyl)amino)pyrimidin-4-yl)-N-(1,1,1-trifluoropropan-2-yl)benzamide], the IC50 on JAK2 [2] came out at 1.13 nM. Besides, at ULK3 [3], the “DSF (ULK3) ΔTm (° C.)” value was 14.0 °C. Besides, the “DSF (JAK2) ΔTm (° C.)” value on JAK2 [4] worked out at 0.4 °C.
`C[C@H](NC(=O)c1ccc(-c2ccnc(Nc3ccc(N4CCOCC4)cc3)n2)cc1)C(F)(F)F` [BH1-152, (S)-4-(2-((4-Morpholinophenyl)amino)pyrimidin-4-yl)-N-(1,1,1-trifluoropropan-2-yl)benzamide]: the midpoint of inhibition against JAK2 [2], the IC50, lay at 0.746 nM. In addition, the “DSF (ULK3) ΔTm (° C.)” value at ULK3 [3] was 12.5 °C. Further, the “DSF (JAK2) ΔTm (° C.)” value on JAK2 [4] amounted to 0.7 °C.
For `O=C(c1ccc(-c2ccnc(Nc3ccc(N4CCOCC4)cc3)n2)cc1)N1CCC[C@H]1C(F)(F)F` [BH1-159, (S)-(4-(2-((4-Morpholinophenyl)amino)pyrimidin-4-yl)phenyl) (2-(trifluoromethyl)pyrrolidin-1-yl) methanone], on JAK2 [2], the IC50 was 74.2 nM. Moreover, the “DSF (JAK2) ΔTm (° C.)” value on JAK2 [4] was found to be 1.1 °C.
As to `O=C(c1ccc(-c2ccnc(Nc3ccc(N4CCOCC4)cc3)n2)cc1)N1CCC[C@@H]1C(F)(F)F` [BH1-160, (R)-(4-(2-((4-Morpholinophenyl)amino)pyrimidin-4-yl)phenyl) (2-(trifluoromethyl)pyrrolidin-1-yl) methanone], the IC50 against JAK2 [2] amounted to 8.56 nM. In addition, on JAK2 [4], the “DSF (JAK2) ΔTm (° C.)” value worked out at 1.4 °C.
`N#CCNC(=O)c1ccc(-c2nc(Nc3ccc(N4CCOCC4)cc3)nc3[nH]ccc23)cc1` [BL4-139] yielded an IC50 on JAK2 [2] of under 0.51 nM. Besides, the “DSF (ULK3) ΔTm (° C.)” value at ULK3 [3] was 15.0 °C.
On to `O=C(NC(CO)Cc1ccccc1)c1ccc(-c2ccnc(Nc3ccc(N4CCOCC4)cc3)n2)cc1` (stereo not drawn) [BR1-008], for which the IC50 on ULK3 [1] amounted to 2280 nM. Moreover, the “DSF (JAK2) ΔTm (° C.)” value at JAK2 [4] is 0.5 °C.
`CN1CCN(Cc2ccc(Nc3nc(-c4ccc(C(=O)NCC#N)cc4)c4cc[nH]c4n3)cc2)CC1` [RF1-024, N-(Cyanomethyl)-4-(2-((4-((4-methylpiperazin-1-yl)methyl)phenyl)amino)-7H-pyrrolo[2,3-d]pyrimidin-4-yl)benzamide] yielded an IC50 against JAK2 [2] of under 0.508 nM. For the same compound, the concentration for 50% growth inhibition (GI50) in the experiment on U266 turned out to be 917 nM; in the experiment with 8226, 3630 nM; in the experiment on OPM2 it was 159 nM; in the experiment with U266 PSR, 2580 nM; with 8226 B25 it was 9490 nM.
In turn, `O=C(NCC(F)(F)F)c1ccc(-c2nc(Nc3ccc(N4CCOCC4)cc3)nc3[nH]ccc23)cc1` [RF1-046, 4-(2-((4-Morpholinophenyl)amino)-7H-pyrrolo[2,3-d]pyrimidin-4-yl)-N-(2,2,2-trifluoro-ethyl)benzamide] registered an IC50 against JAK2 [2] of 0.745 nM.
On to `CN1CCC(c2cnc(Nc3nc(-c4ccc(C(=O)NCC(F)(F)F)cc4)c4cc[nH]c4n3)cc2F)CC1` [RF1-060, 4-(2-((4-Fluoro-5-(1-methylpiperidin-4-yl)pyridin-2-yl)amino)-7H-pyrrolo[2,3-d]pyrimidin-4-yl)-N-(2,2,2-trifluoroethyl)benzamide], for which, at ULK3 [3], the “DSF (ULK3) ΔTm (° C.)” value worked out at 6.8 °C. The GI50 worked out at 4600 nM in the experiment with U266; 12000 nM in the experiment on 8226; 909 nM in the experiment on OPM2; 870 nM with U266 PSR; 2930 nM with 8226 B25.
With `O=C(NCC(F)(F)F)c1ccc(-c2ccnc(Nc3ccc(N4CCOCC4)cc3)n2)cc1` [SR8-169, 4-(2-((4-Morpholinophenyl)amino)pyrimidin-4-yl)-N-(2,2,2-trifluoroethyl)benzamide], the IC50 against ULK3 [1] was 10.3 nM; against JAK2 [2] it was under 0.508 nM. In addition, at ULK3 [3], the “DSF (ULK3) ΔTm (° C.)” value is 15.0 °C and 11.7 °C and 14.7 °C. For the same compound, the GI50 in the experiment with U266 is 86.2 nM; in the experiment with 8226, 83.5 nM; with OPM2, 15.1 nM; with U266 PSR it was 4410 nM; in the experiment with 8226 B25 it was 214 nM.

The values are drawn from patent US20260103455A1, “ULK3 INHIBITORS AND USES THEREOF” (H. LEE MOFFITT CANCER CENTER AND RESEARCH INSTITUTE, INC., priority 2022, published 2026).
